# Measurements: patent US12459917B2, “Salt of diaminopyrimidine compounds, and solid form thereof, preparation method therefor and use thereof” (BEIJING TIDE PHARMACEUTICAL CO., LTD., priority 2019, dated 2025)
# Test: Solubility test in FaSSIF at 37° C.
# Format: physicochemical
# Conditions: FaSSIF (Fasted State Simulated Intestinal Fluid), thermodynamic from solid
# Excerpt: Experimental Example 3: Solubility Test
smiles,measurement,setting,value
"C#Cc1cc(Oc2cnc(N)nc2N)c(C(C)C)cn1 [Free base, 5-((2-ethynyl-5-isopropylpyridin-4-yl)oxy)pyrimidine-2,4-diamine]",solubility at 30 min,30 min,0.08 mg/mL
same,solubility at 2 h,2 h,0.08 mg/mL
same,solubility at 24 h,24 h,0.11 mg/mL
